Data published in article PMC11096414 (Nature Communications, 2024).

Columns and labels:
Assay type in all cases: cell-based
[1] = target: T1, IKKβ (Homo sapiens, UniProt O14920); assay: competition with 4-OI-alk in affinity pull-down, immunoblot; settings: covalent; 125 μM 4-OI for 30 min, then 125 μM 4-OI-alk for 4 h in intact 786-O cells
T1 construct: gene IKBKB; endogenous full-length protein in 786-O cells, detected by anti-IKKβ immunoblot
T1 sequence (O14920 1-756): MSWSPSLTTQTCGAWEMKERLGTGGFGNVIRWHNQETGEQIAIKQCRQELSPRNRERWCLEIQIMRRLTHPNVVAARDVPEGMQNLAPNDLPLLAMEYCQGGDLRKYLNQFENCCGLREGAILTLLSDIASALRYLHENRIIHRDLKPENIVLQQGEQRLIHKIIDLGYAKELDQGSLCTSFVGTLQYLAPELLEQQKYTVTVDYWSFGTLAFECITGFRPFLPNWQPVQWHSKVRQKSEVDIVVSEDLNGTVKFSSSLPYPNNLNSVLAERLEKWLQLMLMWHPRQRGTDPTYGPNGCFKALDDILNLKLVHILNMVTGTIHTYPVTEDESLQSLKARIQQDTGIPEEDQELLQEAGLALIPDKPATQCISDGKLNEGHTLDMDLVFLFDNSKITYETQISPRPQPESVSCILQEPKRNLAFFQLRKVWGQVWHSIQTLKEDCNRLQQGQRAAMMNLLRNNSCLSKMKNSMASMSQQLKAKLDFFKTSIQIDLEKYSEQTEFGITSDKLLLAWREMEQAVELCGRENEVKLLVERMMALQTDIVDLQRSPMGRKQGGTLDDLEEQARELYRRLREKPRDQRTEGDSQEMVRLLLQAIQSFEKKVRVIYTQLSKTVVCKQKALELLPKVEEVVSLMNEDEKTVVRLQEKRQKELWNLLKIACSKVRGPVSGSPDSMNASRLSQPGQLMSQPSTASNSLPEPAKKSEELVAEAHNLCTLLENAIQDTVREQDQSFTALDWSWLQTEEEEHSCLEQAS

[2] = target: T2, MAVS (Homo sapiens, UniProt Q7Z434); assay: as above; settings: covalent; 125 μM 4-OI for 30 min, then 125 μM 4-OI-alk for 4 h in intact 786-O cells
T2 construct: endogenous full-length protein in 786-O cells, detected by anti-MAVS immunoblot
T2 sequence (Q7Z434 2-540): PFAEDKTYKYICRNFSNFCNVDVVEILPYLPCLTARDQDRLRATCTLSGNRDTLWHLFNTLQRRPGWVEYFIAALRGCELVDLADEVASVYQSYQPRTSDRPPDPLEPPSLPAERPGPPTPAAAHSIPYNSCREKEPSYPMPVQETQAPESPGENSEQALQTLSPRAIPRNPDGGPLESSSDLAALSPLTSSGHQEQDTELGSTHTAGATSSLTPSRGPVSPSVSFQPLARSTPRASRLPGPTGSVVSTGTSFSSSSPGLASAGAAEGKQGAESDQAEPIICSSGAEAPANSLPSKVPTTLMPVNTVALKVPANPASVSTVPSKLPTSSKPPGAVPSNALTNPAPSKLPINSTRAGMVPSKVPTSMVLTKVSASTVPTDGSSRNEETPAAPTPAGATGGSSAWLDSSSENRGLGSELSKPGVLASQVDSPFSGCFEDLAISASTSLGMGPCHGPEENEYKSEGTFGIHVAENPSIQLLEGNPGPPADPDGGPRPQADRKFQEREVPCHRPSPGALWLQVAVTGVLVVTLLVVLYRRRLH

[3] = target: T3, Flag-MAVS (Homo sapiens, UniProt Q7Z434); assay: alkyne probe labelling in transfected cells, CuAAC to biotin azide, streptavidin pull-down, anti-Flag immunoblot; settings: covalent; 125 μM, 4 h in intact HEK293T cells
T3 construct: Flag-tagged MAVS expressed from plasmid in HEK293T cells
T3 sequence (Q7Z434 2-540): as above

[4] = target: T2, MAVS; assay: alkyne probe labelling in cells, CuAAC to biotin azide, streptavidin pull-down, immunoblot; settings: covalent; 125 μM, 4 or 24 h in intact 786-O cells
[5] = target: T1, IKKβ; assay: as above; settings: covalent; 125 μM in intact 786-O cells
[6] = target: T4, JAK1 (Homo sapiens, UniProt P23458); assay: as above; settings: covalent; 125 μM in intact 786-O cells
T4 construct: endogenous full-length protein in 786-O cells, detected by anti-Jak1 immunoblot
T4 sequence (P23458 whole entry): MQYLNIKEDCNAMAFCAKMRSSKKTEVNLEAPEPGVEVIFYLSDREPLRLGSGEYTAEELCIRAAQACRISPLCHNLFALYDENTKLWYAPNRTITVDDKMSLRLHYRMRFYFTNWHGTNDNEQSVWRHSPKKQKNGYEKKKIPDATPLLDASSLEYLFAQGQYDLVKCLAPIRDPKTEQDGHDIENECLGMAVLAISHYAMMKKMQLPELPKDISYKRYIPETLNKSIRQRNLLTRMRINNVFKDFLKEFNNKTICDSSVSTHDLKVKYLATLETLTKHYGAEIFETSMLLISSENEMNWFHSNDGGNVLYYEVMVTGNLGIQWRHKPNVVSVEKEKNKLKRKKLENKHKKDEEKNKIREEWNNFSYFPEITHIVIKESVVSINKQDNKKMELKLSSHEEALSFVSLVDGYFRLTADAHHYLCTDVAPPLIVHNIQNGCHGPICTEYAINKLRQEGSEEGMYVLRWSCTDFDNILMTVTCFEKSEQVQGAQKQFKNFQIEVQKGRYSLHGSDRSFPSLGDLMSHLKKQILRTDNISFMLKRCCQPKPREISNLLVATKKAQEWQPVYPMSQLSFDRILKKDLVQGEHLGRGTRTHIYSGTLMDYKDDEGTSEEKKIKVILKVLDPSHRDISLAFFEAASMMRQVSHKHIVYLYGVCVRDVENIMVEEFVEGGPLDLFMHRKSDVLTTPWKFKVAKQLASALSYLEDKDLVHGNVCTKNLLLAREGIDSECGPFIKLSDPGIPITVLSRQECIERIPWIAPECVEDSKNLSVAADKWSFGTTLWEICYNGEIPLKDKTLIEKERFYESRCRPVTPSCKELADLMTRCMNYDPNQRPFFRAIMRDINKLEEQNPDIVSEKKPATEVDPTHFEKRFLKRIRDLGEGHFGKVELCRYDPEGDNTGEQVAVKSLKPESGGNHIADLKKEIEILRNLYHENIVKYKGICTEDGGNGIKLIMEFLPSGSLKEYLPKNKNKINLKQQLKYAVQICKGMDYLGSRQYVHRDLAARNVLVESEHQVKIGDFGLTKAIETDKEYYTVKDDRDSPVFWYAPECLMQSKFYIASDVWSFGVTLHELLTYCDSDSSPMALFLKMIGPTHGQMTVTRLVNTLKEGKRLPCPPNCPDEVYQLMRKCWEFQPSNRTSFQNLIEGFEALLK

| SMILES | competition with 4-OI-alk in affinity pull-down, immunoblot [1] | competition with 4-OI-alk in affinity pull-down, immunoblot [2] | alkyne probe labelling in transfected cells, CuAAC to biotin azide, streptavidin [3] | alkyne probe labelling in cells, CuAAC to biotin azide, streptavidin pull-down, [4] | alkyne probe labelling in cells, CuAAC to biotin azide, streptavidin pull-down, [5] | alkyne probe labelling in cells, CuAAC to biotin azide, streptavidin pull-down, [6] |
| --- | --- | --- | --- | --- | --- | --- |
| C=C(CC(=O)OCCCCCCCC)C(=O)O [4-OI, 4-octyl itaconate] | non-tagged 4-OI competed with 4-OI-alk and reduced the interaction between IKKβ and 4-OI-alk | non-alkyne-tagged 4-OI to compete with 4-OI-alk led to a reduced interaction between MAVS and 4-OI-alk |  |  |  |  |
| C#CCCCCCCOC(=O)CC(=C)C(=O)O [4-OI-alk, 2-methylene-4-(oct-7-yn-1-yloxy)−4-oxobutanoic acid] |  |  | partial reduction of 4-OI-alk labeling of MAVS C283A compared to MAVS wt | We observed an enrichment in 4-OI-alk labeling of MAVS, demonstrating the protein-drug interaction | We further validated the interaction between IKKβ and 4-OI-alk in cancer cells by pull-down | We confirmed the binding of 4-OI-alk to JAK1 in our cellular model |
